{"source": "paper PMC2824046", "about": "(Journal of the American Chemical Society, 2010)", "target": "protein phosphatase 2A (PP2A)", "assay": "PP2A inhibition assay", "format": "biochemical", "data": [{"smiles": "CCCCC/C=C/C=C\\C=C/[C@H](O)[C@H](C)[C@H](C/C=C/[C@@H]1OC(=O)C=C[C@@H]1O)OP(=O)(O)O", "note": "[compound 2, phostriecin]", "values": [{"measurement": "IC50", "result": 720, "unit": "nM"}]}]}
